According to PubChem BioAssay AID330 (DTP/NCI, 2004):
Values joined by “and” are separate entries in the source; they are usually repeats but may differ in a detail not shown here. Identical values can stand only once. Toxic doses and inconclusive results are not listed.

Test system: P388 leukemia ip, CD2F1 mice, survival T/C
Assay: NCI In Vivo Anticancer Drug Screen. Data for tumor model P388 Leukemia (intraperitoneal) in CD2F1 (CDF1) mice
Settings: endpoint: median survival time, higher = longer survival
How it was run: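 Mice carrying the transplanted tumor received test compound or vehicle. Survival was recorded in each group, and the value is the treated-group measurement divided by that of the vehicle-treated control group.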

[1] = dose: 60.0 mg/kg/injection, schedule: Q01DX005 (ip), vehicle: saline with Tween-80
[2] = dose: 50.0 mg/kg/injection, schedule: Q01DX005 (ip), vehicle: saline with Tween-80
[3] = dose: 120.0 mg/kg/injection, schedule: Q01DX005 (ip), vehicle: saline with Tween-80
[4] = dose: 240.0 mg/kg/injection, schedule: Q01DX005 (ip), vehicle: saline with Tween-80
[5] = dose: 100.0 mg/kg/injection, schedule: Q01DX005 (ip), vehicle: saline with Tween-80
[6] = dose: 200.0 mg/kg/injection, schedule: Q01DX005 (ip), vehicle: saline with Tween-80
[7] = dose: 100.0 mg/kg/injection, schedule: Q04DX003 (ip), vehicle: saline with Tween-80
[8] = dose: 400.0 mg/kg/injection, schedule: Q04DX003 (ip), vehicle: saline with Tween-80
[9] = dose: 50.0 mg/kg/injection, schedule: Q01DX009 (ip), vehicle: saline
[10] = dose: 100.0 mg/kg/injection, schedule: Q01DX009 (ip), vehicle: saline
[11] = dose: 200.0 mg/kg/injection, schedule: Q01DX009 (ip), vehicle: saline
[12] = dose: 25.0 mg/kg/injection, schedule: Q01DX009 (ip), vehicle: Klucel (hydroxypropylcellulose) (HPC)
[13] = dose: 50.0 mg/kg/injection, schedule: Q01DX009 (ip), vehicle: Klucel (hydroxypropylcellulose) (HPC)
[14] = dose: 100.0 mg/kg/injection, schedule: Q01DX009 (ip), vehicle: Klucel (hydroxypropylcellulose) (HPC)
[15] = dose: 50.0 mg/kg/injection, schedule: Q01DX005 (ip), vehicle: Klucel (hydroxypropylcellulose) (HPC)
[16] = dose: 100.0 mg/kg/injection, schedule: Q01DX005 (ip), vehicle: Klucel (hydroxypropylcellulose) (HPC)
[17] = dose: 200.0 mg/kg/injection, schedule: Q01DX005 (ip), vehicle: Klucel (hydroxypropylcellulose) (HPC)
[18] = dose: 200.0 mg/kg/injection, schedule: Q01DX009 (ip), vehicle: Klucel (hydroxypropylcellulose) (HPC)
[19] = dose: 100.0 mg/kg/injection, schedule: Q04DX002 (ip), vehicle: saline with Tween-80
[20] = dose: 200.0 mg/kg/injection, schedule: Q04DX002 (ip), vehicle: saline with Tween-80
[21] = dose: 400.0 mg/kg/injection, schedule: Q04DX002 (ip), vehicle: saline with Tween-80
[22] = dose: 12.5 mg/kg/injection, schedule: Q01DX005 (ip), vehicle: Klucel (hydroxypropylcellulose) (HPC)
[23] = dose: 25.0 mg/kg/injection, schedule: Q01DX005 (ip), vehicle: Klucel (hydroxypropylcellulose) (HPC)

## COc1cc2c(cc1OC)C13CCN4CC5=CCOC(CC(=O)O)C(C5CC41)C3N2 (configuration not stated)
dose: 15.0 mg/kg/injection, schedule: Q01DX005 (ip), vehicle: saline
  T/C: 100 % of control
dose: 30.0 mg/kg/injection, schedule: Q01DX005 (ip), vehicle: saline
  T/C: 96 % of control
[1]
  T/C: 99 % of control
dose: 60.0 mg/kg/injection, schedule: Q01DX005 (ip), vehicle: saline
  T/C: 94 % of control and 93 % of control
dose: 120.0 mg/kg/injection, schedule: Q01DX005 (ip), vehicle: saline
  T/C: 96 % of control

## COc1cc2c3c(cccc3c1)C(=O)N(CCN(C)C)C2=O
dose: 9.5 mg/kg/injection, schedule: Q01DX009 (ip), vehicle: saline with Tween-80
  T/C: 110 % of control

## CCCCCCCCCCCC1=C(O)C(=O)C(Cl)=C(O)C1=O
dose: 12.5 mg/kg/injection, schedule: Q01DX005 (ip), vehicle: saline with Tween-80
  T/C: 98 % of control
dose: 25.0 mg/kg/injection, schedule: Q01DX005 (ip), vehicle: saline with Tween-80
  T/C: 97 % of control
[2]
  T/C: 102 % of control and 90 % of control

## Nc1nc(N)nc(-c2cccc(Cl)c2)n1
[1]
  T/C: 100 % of control
[3]
  T/C: 98 % of control
[4]
  T/C: 100 % of control

## CCN(CC)c1ccc2c(C)cc(=O)oc2c1
dose: 25.0 mg/kg/injection, schedule: Q04DX003 (ip), vehicle: DMSO
  T/C: 92 % of control
dose: 50.0 mg/kg/injection, schedule: Q04DX003 (ip), vehicle: DMSO
  T/C: 88 % of control

## CN(C)C(=S)Oc1ccccc1C1SCCS1
[2]
  T/C: 101 % of control
[5]
  T/C: 99 % of control
[6]
  T/C: 105 % of control

## COC(=O)CCC(=O)Nc1ccccc1C(F)(F)F
[1]
  T/C: 102 % of control
[3]
  T/C: 108 % of control
[4]
  T/C: 107 % of control

## COc1cc(/C=N/Nc2ccc([N+](=O)[O-])cc2)cc(OC)c1OC
[7]
  T/C: 95 % of control
[8]
  T/C: 87 % of control

## COc1cccc(CSCC(N)C(=O)O)c1 (configuration not stated)
[2]
  T/C: 104 % of control
[5]
  T/C: 104 % of control
[6]
  T/C: 90 % of control

## CCOC(=O)CS(=O)(=O)CCCCCCS(=O)(=O)CC(=O)OCC
[9]
  T/C: 103 % of control
[10]
  T/C: 91 % of control
[11]
  T/C: 94 % of control

## O=C1OC(=O)C(c2ccccc2)(c2ccccc2)C1c1ccccc1 (configuration not stated)
[7]
  T/C: 112 % of control
dose: 200.0 mg/kg/injection, schedule: Q04DX003 (ip), vehicle: saline with Tween-80
  T/C: 119 % of control
[8]
  T/C: 112 % of control

## OC(CNC1CC2CCC1C2)COc1cccc2ccccc12 (configuration not stated)
[12]
  T/C: 107 % of control
[13]
  T/C: 107 % of control
[14]
  T/C: 110 % of control

## Cc1cc2c(cc1C)NC1C(=O)C(c3cccc([N+](=O)[O-])c3)OC1=N2 (configuration not stated)
[15]
  T/C: 111 % of control
[16]
  T/C: 90 % of control
[17]
  T/C: 87 % of control

## COc1cc(N)ccc1Nc1c2ccccc2nc2ccccc12
dose: 12.5 mg/kg/injection, schedule: Q04DX002 (ip), vehicle: distilled water + Tween-80
  T/C: 117 % of control
dose: 50.0 mg/kg/injection, schedule: Q04DX002 (ip), vehicle: distilled water + Tween-80
  T/C: 165 % of control
dose: 100.0 mg/kg/injection, schedule: Q04DX002 (ip), vehicle: distilled water + Tween-80
  T/C: 166 % of control and 185 % of control
dose: 200.0 mg/kg/injection, schedule: Q04DX002 (ip), vehicle: distilled water + Tween-80
  T/C: 194 % of control

## Cc1nc2c(Cl)cc(Cl)cc2c(=O)n1CC(=O)NNC(N)=S
dose: 50.0 mg/kg/injection, schedule: Q01DX009 (ip), vehicle: saline with Tween-80
  T/C: 97 % of control
dose: 100.0 mg/kg/injection, schedule: Q01DX009 (ip), vehicle: saline with Tween-80
  T/C: 94 % of control
dose: 200.0 mg/kg/injection, schedule: Q01DX009 (ip), vehicle: saline with Tween-80
  T/C: 93 % of control

## Cc1cc(N/N=C/c2cccnc2)c2ccccc2n1
[13]
  T/C: 94 % of control
[14]
  T/C: 100 % of control
[18]
  T/C: 98 % of control

## O=c1[nH]c(=O)c2cc3cn[nH]c3cc2[nH]1
[2]
  T/C: 92 % of control
[5]
  T/C: 89 % of control
[6]
  T/C: 101 % of control

## c1nc(NCCCN2CCOCC2)c2c3c(sc2n1)CCCC3
[2]
  T/C: 109 % of control
[5]
  T/C: 101 % of control
[6]
  T/C: 100 % of control

## CC(C)(C)N=C(NC#N)Nc1cccnc1Cl
[19]
  T/C: 103 % of control
[20]
  T/C: 94 % of control
[21]
  T/C: 92 % of control

## C1CCN(CCC[Si]23OCCN(CCO2)CCO3)C1
[2]
  T/C: 108 % of control
[5]
  T/C: 108 % of control
[6]
  T/C: 109 % of control

## CCOC(=O)C(CC(C)C(C)=O)C(=O)OCC (configuration not stated)
dose: 12.5 mg/kg/injection, schedule: Q01DX009 (ip), vehicle: other
  T/C: 93 % of control
dose: 25.0 mg/kg/injection, schedule: Q01DX009 (ip), vehicle: other
  T/C: 90 % of control
dose: 50.0 mg/kg/injection, schedule: Q01DX009 (ip), vehicle: other
  T/C: 94 % of control
dose: 100.0 mg/kg/injection, schedule: Q01DX009 (ip), vehicle: other
  T/C: 97 % of control
dose: 200.0 mg/kg/injection, schedule: Q01DX009 (ip), vehicle: other
  T/C: 103 % of control

## O=c1[nH]cnc2ncccc12
dose: 12.5 mg/kg/injection, schedule: Q01DX009 (ip), vehicle: Klucel (hydroxypropylcellulose) (HPC)
  T/C: 104 % of control
[12]
  T/C: 110 % of control
[13]
  T/C: 112 % of control
[14]
  T/C: 87 % of control

## O=C1c2ccccc2C(C2c3ccccc3C(=O)c3cc(Br)ccc32)c2ccc(Br)cc21 (configuration not stated)
[22]
  T/C: 88 % of control
[23]
  T/C: 97 % of control
[15]
  T/C: 90 % of control
[16]
  T/C: 86 % of control

## N#CC(C#N)=Cc1ccc(N2CCOCC2)cc1
[9]
  T/C: 90 % of control
[10]
  T/C: 97 % of control
[11]
  T/C: 90 % of control

## Cc1cc(OCCCCCCC[N+](C)(C)Cc2ccc([N+](=O)[O-])o2)c(C(C)C)cc1Cl
dose: 12.5 mg/kg/injection, schedule: Q04DX003 (ip), vehicle: saline
  T/C: 99 % of control
dose: 25.0 mg/kg/injection, schedule: Q04DX003 (ip), vehicle: saline
  T/C: 92 % of control

## FC(F)(F)c1ccc2c3c(c4c(c2n1)OCN(Cc1ccc(Cl)cc1Cl)C4)CN(Cc1ccc(Cl)cc1Cl)CO3
dose: 100.0 mg/kg/injection, schedule: Q01DX001 (ip), vehicle: other
  T/C: 93 % of control
dose: 200.0 mg/kg/injection, schedule: Q01DX001 (ip), vehicle: other
  T/C: 93 % of control
dose: 400.0 mg/kg/injection, schedule: Q01DX001 (ip), vehicle: other
  T/C: 100 % of control

## CCCCCCCCCCCCNC(=O)NCC(=O)OCC
[12]
  T/C: 91 % of control
[13]
  T/C: 100 % of control
[14]
  T/C: 103 % of control
[18]
  T/C: 89 % of control

## Nc1nc(N)c(CCc2ccccc2)c(N)n1
[22]
  T/C: 97 % of control
[23]
  T/C: 103 % of control
[15]
  T/C: 92 % of control and 97 % of control

## CC1=C(c2ccccc2)CS1(=O)=O
[19]
  T/C: 101 % of control
[20]
  T/C: 99 % of control
[21]
  T/C: 110 % of control

## COc1cc2c(cc1OC)C1C(CC(=O)O)CCCN1CC2 (configuration not stated)
[15]
  T/C: 112 % of control
[16]
  T/C: 100 % of control
[17]
  T/C: 100 % of control

## [O-][n+]1ccc(Br)c(/C=C/c2ccccc2)c1
dose: 30.0 mg/kg/injection, schedule: Q01DX005 (ip), vehicle: saline with Tween-80
  T/C: 101 % of control
[1]
  T/C: 101 % of control
[3]
  T/C: 102 % of control
[4]
  T/C: 101 % of control

## CC1CCCC2COCN12 (configuration not stated)
dose: 12.5 mg/kg/injection, schedule: Q01DX005 (ip), vehicle: saline
  T/C: 105 % of control and 98 % of control
dose: 25.0 mg/kg/injection, schedule: Q01DX005 (ip), vehicle: saline
  T/C: 105 % of control and 106 % of control
dose: 50.0 mg/kg/injection, schedule: Q01DX005 (ip), vehicle: saline
  T/C: 101 % of control and 116 % of control and 118 % of control
dose: 100.0 mg/kg/injection, schedule: Q01DX005 (ip), vehicle: saline
  T/C: 123 % of control and 96 % of control
dose: 200.0 mg/kg/injection, schedule: Q01DX005 (ip), vehicle: saline
  T/C: 115 % of control
